Legend:
[1] = tested on: cultured human myotubes (primary myoblasts W018); assay: In vitro model for muscle protein synthesis: Click-iT OPP incorporation in myotubes (modified MyoScreen); format: cell-based; conditions: myotubes in DMEM with 0.15× plasma amino acid profile, treated with amino acids at 1× human plasma concentration, 4 days; Click-iT signal in myotube mask
Protocol: The ability of amino acids to influence protein synthesis in muscle cells was assessed using a modified version of MyoScreen (Cytoo SA, Grenoble Fr).
(§1) Primary myoblasts (W018) were amplified and seeded into CYTOOplates on Day 0. After one day differentiation was started in DMEM/F12+GlutaMAX supplemented with 0.1% Horse Serum.
Protein Synthesis after 4 Days by Fluorescence Microscopy
After 4 days of culture, cells were washed twice with PBS 1× (Gibco), fixed with 4% Paraformaldehyde, and washed twice with PBS 1× (100 μL). Cells were then permeabilized by 0.5% Triton X-100 followed by three washes with PBS. After fixation, cells were immuno-stained for troponin to identify specific myotubes. […] In the Click-iT assay, 0-propargyl-puromycin (OPP) is efficiently incorporated into newly translated proteins in vivo for 30 minutes and then fluorescently labeled with Alexa Fluor® dye, which can be detected by high-content imaging (Molecular Devices). Click-iT signal was restricted to the myotube mask generated by the troponin co-stain. Data was collected as Click-iT mean intensity in myotubes (au). Images were acquired with Operetta HCS platform (Perkin Elmer) using a 10× objective in three fluorescent channels: nuclei, Troponin T, and Click-iT. Image processing and analysis were performed with a dedicated algorithm developed on Acapella high Content imaging Software (Perkin Elmer) at CYTOO. […]

[2] = tested on: differentiating cultured human myotubes (primary myoblasts W018); assay: In vitro model for myogenesis: myotube fusion index (modified MyoScreen); format: cell-based; conditions: myotubes in DMEM with 0.15× plasma amino acid profile, treated with amino acids at 1× human plasma concentration, 4 days
Protocol: as §1
Fusion Index Analysis after 4 Days by Fluorescence Microscopy
Images were acquired with Operetta HCS platform (Perkin Elmer) using a 10× objective in two fluorescent channels: nuclei, Troponin T. Image processing and analysis were performed with a dedicated algorithm developed on Acapella high Content imaging Software (Perkin Elmer) at CYTOO. Nuclei within myotubes were counted under myotube mask generated by troponin co-stain and fusion index was calculated as the percentage of fused nuclei in myotube over total nuclei. Statistical analysis was done with T-Test relative to the untreated condition.

SMILES: N[C@@H](CC(=O)O)C(=O)O [D, Aspartic acid/Aspartate]
- Protein Synthesis median [1]: 0.1078
- Fusion Index median [2]: 0.05657

Reference: patent publication US20230089723A1, “AMINO ACID COMPOSITIONS AND METHODS FOR MUSCLE AND MYOTUBE MODULATION” (AXCELLA HEALTH INC., priority 2020, published 2023)
